Key:
[1] = system: IL-17AF-induced IL-17 signaling pathway; assay: Inhibition of IL-17AF-induced IL-17 signaling pathway; format: cell-based; settings: Homo sapiens; IL-17AF used instead of IL-17AA; read-out: IC50 for Inhibiting IL-AF Signaling
Description: (§1) Interleukin-17 (IL-17) reporter cell line (HEK-Blue IL-17, InvivoGen, Catalog Number hkb-i117) is created by genetically engineering human IL-17RA/IL-17RC heterodimeric receptor and downstream adapter protein ACT1 into human embryonic kidney 293 cells (HEK293). These cells also express secreted embryonic alkaline phosphatase (SEAP) reporter gene induced by NF-κB and AP-1. Therefore, IL-17AA can activate NF-κB and AP-1 signaling pathways inside the cells by binding to IL-17RA/RC on cell membrane, leading to expression of SEAP protein. After a colorimetric reaction between SEAP protein and Quanti-Blue solution, the absorbance at 620 nm is measured using a microplate reader (BioTek H1M, Agilent, Catalog Number SH1M-SN) to determine IL-17AA-activated signaling pathway.
(§2) In the experiment, HEK-Blue IL-17 cells were cultured at 37° C. under 5% CO2 conditions using the recommended medium from InvivoGen's instruction. Compounds were serially diluted starting from 10 μM. 4 μL of each compound solution was added to 32 μL of cells (10,000 cells) at 37° C. for 1 hour. After pre-incubation, 4 μL of IL-17AA with a final concentration of 2.5 ng/mL (Sino Biological, Catalog Number 12047-HNAS) was added to the cells, and incubation was continued for additional 20 hours. After incubation, 5 μL of cell culture supernatant was added to 45 μL of Quanti-Blue for the colorimetric reaction. The group without tested compound had the highest absorbance at 620 nm, and the group without IL-17AA had the lowest absorbance at 620 nm.
(§3) Therefore, the percentage of inhibition of tested compound was calculated as
(§4) Experimental results were analyzed using XLfit (IDBS) for 4-parameter nonlinear fitting analysis to provide the IC50 value for each tested compound (Table 1).
Example 44. Inhibition of IL-17AF-Induced IL-17 Signaling Pathway
The same experimental procedure to Example […] was followed where IL-17AF was used instead of IL-17AA.

[2] = system: IL-17AA-induced IL-17 signaling pathway; assay: Inhibition of IL-17AA-induced IL-17 signaling pathway in HEK-Blue IL-17 reporter cells (SEAP); format: cell-based; settings: Homo sapiens; HEK-Blue IL-17 cells, IL-17AA 2.5 ng/mL, 20 hours; read-out: IC50 for Inhibiting IL-AA Signaling
Description: Example 43. Inhibition of IL-17AA-Induced IL-17 Signaling Pathway
as §1, §2, §3, §4

[3] = molecular target: T1, IL-17AA and IL-17RA (Homo sapiens, UniProt Q16552); assay: Competitive inhibition of human IL-17AA and IL-17RA binding (HTRF); settings: recombinant IL-17AA (His-tag) and IL-17RA (hFc-tag); read-out: IC50 for Inhibiting IL-AA/IL-RA Binding
T1 construct: purchased Sino Biological 12047-H07B (IL-17AA); 10895-H02H (IL-17RA)
T1 sequence (Q16552 24-155): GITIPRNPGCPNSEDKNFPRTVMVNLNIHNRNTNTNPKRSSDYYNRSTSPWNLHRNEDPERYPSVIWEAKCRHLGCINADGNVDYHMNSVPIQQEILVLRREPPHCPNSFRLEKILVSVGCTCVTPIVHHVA
Description: Example 42. Competitive Inhibition of Human IL-17AA and IL-17RA Binding
Recombinant IL-17AA (His-tag, Catalog Number 12047-H07B) and IL-17RA (hFc-tag, Catalog Number 10895-H02H) were purchased from Sino Biological. In the experiment, 10 μL of IL-17AA (1 nM) or IL-17RA (1 nM) was added to 10 μL of anti-6His-Tb (0.4 nM, Revvity, Catalog Number 61HISTLF) or anti-human IgG-d2 (1 μg/mL, anti-human IgG-d2, Revvity, Catalog Number 61HFCDAF), respectively and incubated at room temperature for 1 hour. Compounds were serially diluted starting from 10 μM. 5 μL of each compound solution was incubated with 5 μL of a mixture of IL-17AA and anti-6His-Tb at room temperature for 2 hours. After pre-incubation, to which was added 10 μL of a mixture of IL-17RA and anti-human IgG-d2, and incubation was continued for additional 20 minutes. Subsequently, a microplate reader (Envision, PerkinElmer) was used to detect fluorescence intensity at 615 nm and 665 nm, and the ratio of intensity thereof indicates the degree of IL-17AA and IL-17RA interaction. The ratio of intensity in the absence of tested compound was the highest value of binding between IL-17AA and IL-17RA, and the ratio of intensity in the absence of IL-17AA was the lowest value.
as §3
Experimental results were analyzed using XLfit (IDBS) for 4-parameter nonlinear fitting analysis, to provide the IC50 value for each tested compound (Table 1).

Structure (SMILES) | IC50 [1] | IC50 [2] | IC50 [3]
CCn1nccc1C(=O)N[C@H](C(=O)Nc1ccc([C@H](C)[C@@H](NC(=O)[C@H](C)OC)c2nncn2CC2CC2)cc1F)C(C1CC1)C1CC1 [Compound 16, N-((S)-1,1-dicyclopropyl-3-((4-((1R,2S)-1-(4-(cyclopropylmethyl)-4H-1,2,4-triazol-3-yl)-1-((S)-2-methoxypropanamido)propan-2-yl)-2-fluorophenyl)amino)-3-oxopropan-2-yl)-1-ethyl-1H-pyrazole-5-carboxamide] | 13 nM | 6.3 nM | 6.3 nM
CCn1nccc1C(=O)N[C@H](C(=O)Nc1ccc([C@H](C)[C@@H](NC(=O)COC)c2nnc(C)s2)cc1F)C(C1CC1)C1CC1 [Compound 17, N-((S)-1,1-dicyclopropyl-3-((2-fluoro-4-((1R,2S)-1-(2-methoxyacetamido)-1-(5-methyl-1,3,4-thiadiazol-2-yl)propan-2-yl)phenyl)amino)-3-oxopropan-2-yl)-1-ethyl-1H-pyrazole-5-carboxamide] | 251 nM | 85 nM | 442 nM
CCn1nccc1C(=O)N[C@H](C(=O)Nc1ccc([C@H](C)[C@@H](NC(=O)COC)c2nnc(C)n2CC2CC2)cc1F)C(C1CC1)C1CC1 [Compound 18, N-((S)-1,1-dicyclopropyl-3-((4-((1R,2S)-1-(4-(cyclopropylmethyl)-5-methyl-4H-1,2,4-triazol-3-yl)-1-(2-methoxyacetamido)propan-2-yl)-2-fluorophenyl)amino)-3-oxopropan-2-yl)-1-ethyl-1H-pyrazole-5-carboxamide] | 51 nM | 14 nM | 17 nM
CCn1nccc1C(=O)N[C@H](C(=O)Nc1ccc([C@H](C)[C@@H](NC(=O)COC)c2ncnn2CC2CC2)cc1F)C(C1CC1)C1CC1 [Compound 19, N-((S)-1,1-dicyclopropyl-3-((4-((1R,2S)-1-(1-(cyclopropylmethyl)-1H-1,2,4-triazol-5-yl)-1-(2-methoxyacetamido)propan-2-yl)-2-fluorophenyl)amino)-3-oxopropan-2-yl)-1-ethyl-1H-pyrazole-5-carboxamide] | 4 nM | 2.6 nM | 4.5 nM
CCn1nccc1C(=O)N[C@H](C(=O)Nc1ccc([C@H](C)[C@@H](NC(=O)COC)c2ncn(CC3CC3)n2)cc1F)C(C1CC1)C1CC1 [Compound 20, N-((S)-1,1-dicyclopropyl-3-((4-((1R,2S)-1-(1-(cyclopropylmethyl)-1H-1,2,4-triazol-3-yl)-1-(2-methoxyacetamido)propan-2-yl)-2-fluorophenyl)amino)-3-oxopropan-2-yl)-1-ethyl-1H-pyrazole-5-carboxamide] | 50 nM | 14 nM | 20 nM
CCn1nccc1C(=O)N[C@H](C(=O)Nc1ccc([C@H](C)[C@@H](NC(=O)N(C)C2CC2)c2nncn2CC2CC2)cc1F)C(C1CC1)C1CC1 [Compound 21, N-((S)-1,1-dicyclopropyl-3-((4-((1R,2S)-1-(3-cyclopropyl-3-methylureido)-1-(4-(cyclopropylmethyl)-4H-1,2,4-triazol-3-yl)propan-2-yl)-2-fluorophenyl)amino)-3-oxopropan-2-yl)-1-ethyl-1H-pyrazole-5-carboxamide] | 3.7 nM | 1.8 nM | 2.2 nM
CC(=O)N[C@@H](c1nncn1CC1CC1)[C@@H](C)c1ccc(NC(=O)[C@@H](NC(=O)c2ccnn2C(C)C)C(C2CC2)C2CC2)c(F)c1 [Compound 22, N-((S)-1-((4-((1R,2S)-1-acetamido-1-(4-(cyclopropylmethyl)-4H-1,2,4-triazol-3-yl)propan-2-yl)-2-fluorophenyl)amino)-3,3-dicyclopropyl-1-oxopropan-2-yl)-1-isopropyl-1H-pyrazole-5-carboxamide] | 46 nM | 28 nM | 13 nM
CCn1nccc1C(=O)N[C@H](C(=O)Nc1ccc([C@H](C)[C@@H](NC(=O)COC)c2nncn2CC23CC(F)(C2)C3)cc1F)C(C1CC1)C1CC1 [Compound 23, N-((S)-1,1-dicyclopropyl-3-((2-fluoro-4-((1R,2S)-1-(4-((3-fluorobicyclo[1.1.1]pentan-1-yl)methyl)-4H-1,2,4-triazol-3-yl)-1-(2-methoxyacetamido)propan-2-yl)phenyl)amino)-3-oxopropan-2-yl)-1-ethyl-1H-pyrazole-5-carboxamide] | 91 nM | 25 nM | 21 nM
CCn1nccc1C(=O)N[C@H](C(=O)Nc1ccc([C@H](C)[C@@H](NC(=O)COC)c2nnnn2CC2CC2)cc1F)C(C1CC1)C1CC1 [Compound 24, N-((S)-1,1-dicyclopropyl-3-((4-((1R,2S)-1-(1-(cyclopropylmethyl)-1H-tetrazol-5-yl)-1-(2-methoxyacetamido)propan-2-yl)-2-fluorophenyl)amino)-3-oxopropan-2-yl)-1-ethyl-1H-pyrazole-5-carboxamide] | 10 nM | 2.5 nM | 3.2 nM
CCn1nccc1C(=O)N[C@H](C(=O)Nc1ccc([C@H](C)[C@@H](NC(=O)COC)c2nc(C)nn2CC2CC2)cc1F)C(C1CC1)C1CC1 [Compound 25, N-((S)-1,1-dicyclopropyl-3-((4-((1R,2S)-1-(1-(cyclopropylmethyl)-3-methyl-1H-1,2,4-triazol-5-yl)-1-(2-methoxyacetamido)propan-2-yl)-2-fluorophenyl)amino)-3-oxopropan-2-yl)-1-ethyl-1H-pyrazole-5-carboxamide] | 313 nM | 115 nM | 57 nM
CCc1nonc1C(=O)N[C@H](C(=O)Nc1ccc([C@H](C)[C@@H](NC(=O)[C@H](C)OC)c2nncn2CC2CC2)cc1F)C(C1CC1)C1CC1 [Compound 26, N-((S)-1,1-dicyclopropyl-3-((4-((1R,2S)-1-(4-(cyclopropylmethyl)-4H-1,2,4-triazol-3-yl)-1-((S)-2-methoxypropanamido)propan-2-yl)-2-fluorophenyl)amino)-3-oxopropan-2-yl)-4-ethyl-1,2,5-oxadiazole-3-carboxamide] | 4.5 nM | 2 nM | 0.8 nM
CCn1nccc1C(=O)N[C@H](C(=O)Nc1ccc([C@H](C)[C@@H](NC(=O)COC)c2nccnc2OC2CC2)cc1F)C(C1CC1)C1CC1 [Compound 27, N-((S)-1-((4-((1R,2S)-1-(3-cyclopropoxypyrazin-2-yl)-1-(2-methoxyacetamido)propan-2-yl)-2-fluorophenyl)amino)-3,3-dicyclopropyl-1-oxopropan-2-yl)-1-ethyl-1H-pyrazole-5-carboxamide] | 102 nM | 39 nM | 27 nM
CCn1nccc1C(=O)N[C@H](C(=O)Nc1ccc([C@H](C)[C@@H](NC(=O)COC)c2ncccc2CC2CC2)cc1F)C(C1CC1)C1CC1 [Compound 28, N-((S)-1,1-dicyclopropyl-3-((4-((1R,2S)-1-(3-(cyclopropylmethyl)pyridin-2-yl)-1-(2-methoxyacetamido)propan-2-yl)-2-fluorophenyl)amino)-3-oxopropan-2-yl)-1-ethyl-1H-pyrazole-5-carboxamide] | 24 nM | 8.4 nM | 7.8 nM

— patent publication US20260083708A1, “IL-17 MODULATORS AND USES THEREOF” (NNOCARE PHARMA INC., priority 2024, published 2026)
